We go through six molecules from ChEMBL document CHEMBL5518164, “Membrane-permeable tenofovir-di- and monophosphate analogues” (Eur J Med Chem, 2024).

Series [1] can be described thus: Prodrug conversion of the compound in phosphate buffer saline assessed as (R)-9-(2-(phosphonomethoxy)propyl)adenine formation by measuring half life at pH 7.3 by RP18-HPLC analysis. In kind it is ADME.
The nature of series [2]: Prodrug conversion of the compound in phosphate buffer saline assessed as (R)-9-(2-(phosphonomethoxy)propyl)adenine formation by measuring half life in presence of pig liver esterase at pH 7.3 by RP18-HPLC analysis. In kind it is ADME, Sus scrofa.
Series [3] can be described thus: Half life of the compound in human CEM/0 cell extracts by RP18-HPLC analysis. In kind it is ADME, CCRF-CEM.
A short description of series [4]: Lipophilicity of the compound assessed as retention time by RP-HPLC analysis. In kind it is physicochemical.
For series [5], the system named is Human immunodeficiency virus. Kind of series: Substrate activity at HIV reverse transcriptase assessed as n+1 band formation incubated for 30 mins in presence of primer/template mixture by primer extension assay based fluorescence analysis.
For series [6], the system named is Human immunodeficiency virus. Briefly: Substrate activity at HIV reverse transcriptase assessed as n+1 band formation incubated for 30 mins in presence of primer/template mixture and dNTPs by primer extension assay based fluorescence analysis.
In series [7] the test system is Human immunodeficiency virus. Briefly: Substrate activity at HIV reverse transcriptase assessed as full elongation of primer by measuring n+5 band formation incubated for 30 mins in presence of primer/template mixture and dNTPs by primer extension assay based fluorescence analysis.
Series [8] concerns Human immunodeficiency virus. Briefly: Inhibition of HIV reverse transcriptase assessed as inhibition of elongation of primer at 25000 uM incubated for 30 mins in presence of primer/template mixture and dNTPs by primer extension assay based fluorescence analysis.
The test system of series [9] is Human immunodeficiency virus. Kind of series: Inhibition of HIV reverse transcriptase assessed as inhibition of elongation of primer at 25000 uM incubated for 30 mins in presence of primer/template mixture and 250 uM dNTPs by primer extension assay based fluorescence analysis.
Series [10] deals with T1, DNA polymerase subunit gamma-1 (Homo sapiens) (UniProt P54098).
T1 sequence (whole entry): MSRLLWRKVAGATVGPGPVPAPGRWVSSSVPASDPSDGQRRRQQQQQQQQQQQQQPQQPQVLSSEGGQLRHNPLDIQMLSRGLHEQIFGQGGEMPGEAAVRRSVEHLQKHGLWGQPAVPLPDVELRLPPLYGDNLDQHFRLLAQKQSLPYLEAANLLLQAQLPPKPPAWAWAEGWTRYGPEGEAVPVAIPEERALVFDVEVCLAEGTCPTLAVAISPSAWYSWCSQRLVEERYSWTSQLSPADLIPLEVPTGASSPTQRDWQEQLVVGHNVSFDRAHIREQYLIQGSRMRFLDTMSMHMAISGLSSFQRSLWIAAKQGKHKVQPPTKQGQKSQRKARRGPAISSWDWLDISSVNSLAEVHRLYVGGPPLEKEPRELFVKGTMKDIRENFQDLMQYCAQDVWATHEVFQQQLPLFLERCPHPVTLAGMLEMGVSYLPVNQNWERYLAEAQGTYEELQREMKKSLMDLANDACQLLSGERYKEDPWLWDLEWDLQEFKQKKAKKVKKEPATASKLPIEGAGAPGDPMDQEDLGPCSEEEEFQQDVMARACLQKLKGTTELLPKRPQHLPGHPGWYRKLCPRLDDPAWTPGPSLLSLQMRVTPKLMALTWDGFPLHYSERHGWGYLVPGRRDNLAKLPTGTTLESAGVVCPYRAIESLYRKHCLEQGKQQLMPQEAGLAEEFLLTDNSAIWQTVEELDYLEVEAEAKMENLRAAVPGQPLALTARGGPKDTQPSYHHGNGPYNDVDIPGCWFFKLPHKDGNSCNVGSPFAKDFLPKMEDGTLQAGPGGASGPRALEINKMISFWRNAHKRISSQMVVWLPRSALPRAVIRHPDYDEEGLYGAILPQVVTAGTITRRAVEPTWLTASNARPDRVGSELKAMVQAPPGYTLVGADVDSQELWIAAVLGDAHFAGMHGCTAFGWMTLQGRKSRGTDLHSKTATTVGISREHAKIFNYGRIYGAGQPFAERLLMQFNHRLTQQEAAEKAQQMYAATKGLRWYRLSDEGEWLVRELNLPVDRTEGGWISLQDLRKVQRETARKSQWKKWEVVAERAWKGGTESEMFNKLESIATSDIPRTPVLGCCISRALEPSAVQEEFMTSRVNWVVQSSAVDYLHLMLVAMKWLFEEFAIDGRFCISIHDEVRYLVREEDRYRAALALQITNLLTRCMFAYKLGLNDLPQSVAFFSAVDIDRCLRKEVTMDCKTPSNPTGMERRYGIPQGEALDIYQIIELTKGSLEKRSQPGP
Briefly: Substrate activity at human DNA polymerase gamma assessed as elongation of primer at 250 uM incubated for 120 mins in presence of primer/template mixture by primer extension assay based fluorescence analysis.

For series [11], the target named is T1, DNA polymerase subunit gamma-1 (Homo sapiens). Briefly: Substrate activity at human DNA polymerase gamma assessed as elongation of primer at 250 uM incubated for 120 mins in presence of primer/template mixture and dNTPs by primer extension assay based fluorescence analysis.
Series [12] deals with Human immunodeficiency virus 1. Kind of series: Antiviral activity against HIV-1 HE infected in wild type human CEM/0 cells assessed as inhibition of virus-induced giant cell formation incubated for 4 to 5 days by light microscopy. In kind it is functional, organism-based. As to conditions: Human immunodeficiency virus 1, HE, CCRF-CEM.
In series [13] the test system is Human immunodeficiency virus 2. Briefly: Antiviral activity against HIV-2 ROD infected in wild type human CEM/0 cells assessed as inhibition of virus-induced giant cell formation incubated for 4 to 5 days by light microscopy. As to conditions: Human immunodeficiency virus 2, ROD, CCRF-CEM. In kind it is functional, organism-based.
Series [14] concerns Human immunodeficiency virus 2. Briefly: Antiviral activity against HIV-2 ROD infected in thymidine kinase deficient human CEM cells assessed as inhibition of virus-induced giant cell formation incubated for 4 to 5 days by light microscopy. In kind it is functional, organism-based. As to conditions: Human immunodeficiency virus 2, ROD, CCRF-CEM.
Series [15] is described as follows: Cytotoxicity against human CEM cells assessed as inhibition of cell proliferation. In kind it is toxicity, cell-based, CCRF-CEM.
The nature of series [16]: Selectivity index, ratio of CC50 for cytotoxicity against human CEM cells to EC50 for antiviral activity against HIV-2 ROD infected in thymidine kinase deficient human CEM cells. In kind it is toxicity, cell-based. As to conditions: read-out: Ratio CC50/EC50.
In series [17] the test system is Human immunodeficiency virus 2. Kind of series: Potency index, ratio of Tenofovir EC50 to test compound EC50 for antiviral activity against HIV-2 ROD infected in thymidine kinase deficient human CEM cells. In kind it is functional.
Series [18] deals with Human immunodeficiency virus. Briefly: Substrate activity at HIV reverse transcriptase assessed as n+1 band formation incubated for 30 mins in presence of primer/template mixture and 2.6 fold excess of dNTPs by primer extension assay based fluorescence analysis.
In series [19] the test system is Human immunodeficiency virus 1. Kind of series: Potency index, ratio of Tenofovir EC50 to test compound EC50 for antiviral activity against HIV-1 HE infected in wild type human CEM/0 cells. In kind it is functional.
Series [20] concerns Human immunodeficiency virus 2. Briefly: Potency index, ratio of Tenofovir EC50 to test compound EC50 for antiviral activity against HIV-2 ROD infected in wild type human CEM/0 cells. In kind it is functional.
Series [21] can be described thus: Prodrug conversion of the compound in phosphate buffer saline assessed as Tenofovir monophosphate formation by measuring half life at pH 7.3 by RP18-HPLC analysis. In kind it is ADME.
The nature of series [22]: Prodrug conversion of the compound in phosphate buffer saline assessed as Tenofovir monophosphate by measuring half life in presence of pig liver esterase at pH 7.3 by RP18-HPLC analysis. In kind it is ADME, Sus scrofa.
Series [23] relates to Human immunodeficiency virus. Briefly: Substrate activity at HIV reverse transcriptase assessed as elongation of primer at 97.6 to 12500 uM incubated for 30 mins in presence of primer/template mixture and dNTPs by primer extension assay based fluorescence analysis. As to conditions: dose 97.6-12500 µM.
Series [24] relates to Human immunodeficiency virus. Kind of series: Substrate activity at HIV reverse transcriptase assessed as n+1 band formation at 25000 uM incubated for 30 mins in presence of primer/template mixture and dNTPs by primer extension assay based fluorescence analysis.
For series [25], the system named is Human immunodeficiency virus. Briefly: Substrate activity at HIV reverse transcriptase assessed as elongation of primer at 97.6 to 12500 uM incubated for 30 mins in presence of primer/template mixture and 250 uM dNTPs by primer extension assay based fluorescence analysis. As to conditions: dose 97.6-12500 µM.
Series [26] relates to Human immunodeficiency virus. Briefly: Substrate activity at HIV reverse transcriptase assessed as n+1 band formation at 97.6 to 12500 uM incubated for 30 mins in presence of primer/template mixture and 250 uM dNTPs by primer extension assay based fluorescence analysis. As to conditions: dose 97.6-12500 µM.
Series [27] in a line: Half life of the compound in phosphate buffer saline at pH 7.3 by RP18-HPLC analysis. In kind it is ADME.
The nature of series [28]: Drug hydrolysis in phosphate buffer saline incubated for 500 hrs at pH 7.3 by RP18-HPLC analysis. In kind it is physicochemical. As to conditions: read-out: Drug degradation.
A short description of series [29]: Drug hydrolysis in phosphate buffer saline incubated for 600 hrs at pH 7.3 by RP18-HPLC analysis. In kind it is physicochemical. As to conditions: read-out: Drug degradation.

Calls of active or inactive are those of the source.

Consider `CCCCCCCCCCCCCCCCCCOP(=O)(O)OP(=O)(O)OP(=O)(O)CO[C@H](C)Cn1cnc2c(N)ncnc21`, for which the t1/2 in series [1] is over 200 h; in series [2], over 50 h. Further, the half-life (as a rule, the time needed for the level to fall by half in the phase considered) in [3] was over 8 h. In addition, the Retention_time in [4] is 14.2 min. Besides, the outcome in [5], in [7], in series [11] and in [18] was Active. Also, the outcome in series [6] and in [10] was inactive. Besides, the inhibition result in series [8] and in series [9] was “Active” throughout. In addition, the results for the EC50 in series [12], in series [13] and in series [14] were 360 nM, 700 nM and 27 nM, respectively. Moreover, in [15], the CC50 – broadly, the concentration that lowers cell viability or growth by half – was over 100000 nM. The selectivity ratio in series [16] is over 3700. Also, the “Ratio EC50” value in series [17] turned out to be 32.
Consider `CCCCCCCCCCCCCCCCCCOP(=O)(OCc1ccc(OC(=O)CCCC)cc1)OP(=O)(O)OP(=O)(O)CO[C@H](C)Cn1cnc2c(N)ncnc21` (stereo not given in full), for which the values for the t1/2 in [1] and in series [2] were 51 h and 0.683 h, respectively. In addition, the half-life in series [3] is 2.1 h. Besides, the Retention_time in series [4] was 17.5 min. In addition, the concentration giving a half-maximal response (EC50) (usually the midpoint of the concentration-response curve) worked out at 150 nM in series [12], 76 nM in [13] and 58 nM in series [14]. In addition, the CC50 in [15] stood at 57200 nM. The selectivity ratio in series [16] stood at 986. Besides, the “Ratio EC50” value in [19] is on record as 13; in [20], 23.
For the molecule `CCCCCCCCC(=O)Oc1ccc(COOP(=O)(O)OP(=O)(O)OP(=O)(O)CO[C@H](C)Cn2cnc3c(N)ncnc32)cc1`, the t1/2 in series [1] is 9 h; in [21], over 200 h; in series [2] it was 0.00267 h; in series [22], 3.6 s. Besides, in series [3], the half-life is 0.97 h. Also, the Retention_time in [4] is reported as 16.4 min. Also, the EC50 in series [12] came out at 1130 nM; in series [13], 350 nM; in series [14], 560 nM. In [15], the 50% cytotoxic concentration (CC50) worked out at 48900 nM. The selectivity ratio in series [16] is 87.
As to `C[C@H](Cn1cnc2c(N)ncnc21)OCP(=O)(O)OP(=O)(O)OP(=O)(O)O`, the result in [5], in [6], in series [7], in series [23], in [25] and in series [26] was Active. Besides, the outcome in [11] was Active. Moreover, the inhibition result in [8] and in series [9] was “Active” each time. In addition, the outcome in [24] and in [10] was inactive.
Regarding `CCCCCCCCCCCCCCCCCCP(=O)(OCCCCCCCC)OP(=O)(O)OP(=O)(O)CO[C@H](C)Cn1cnc2c(N)ncnc21` (stereo not given in full), the half-life was over 8 h in series [3] and over 500 h in series [27]. Further, the degraded at 500 h in series [28] was 36%. In addition, the degraded at 600 h in series [29] turned out to be 43%. Further, the Retention_time in series [4] is listed as 16.3 min. For the same molecule, the EC50 in [12] came out at 640 nM; in series [13], 140 nM; in series [14] it was 55 nM. For the same molecule, the CC50 in [15] amounted to 48500 nM. For the same molecule, the selectivity ratio in [16] came out at 882.
Take `CCCCCCCCCCCOP(=O)(O)OP(=O)(O)OP(=O)(O)CO[C@H](C)Cn1cnc2c(N)ncnc21`: the Retention_time in series [4] worked out at 12.5 min. Also, the result in series [5], in [7], in [11] and in series [18] was Active. Besides, the outcome in [6] and in [10] was inactive. Besides, the inhibition result in series [8] and in series [9] was “Active” each time. The EC50 in series [12] came out at 5270 nM; in series [13] it was 5550 nM; in [14], 4620 nM. Further, in series [15], the CC50 was over 100000 nM. Moreover, the selectivity ratio in [16] was over 21.
